# Measured values as given in PubChem BioAssay (NCI).
#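 Grown in 96-well plates, cells were treated for 48 hours with each compound at five concentrations. Insufficient inhibition: endpoint recorded as highest concentration tested. At the TGI there is no net growth.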
# Experiments:
# Assay in all cases: NCI-60 cell line screen, 48 h
# NCI-H23 lung = system: NCI-H23 lung
# HT29 colon = system: HT29 colon
# KM12 colon = system: KM12 colon
# A498 renal = system: A498 renal
# M14 melanoma = system: M14 melanoma
# UACC-257 melanoma = system: UACC-257 melanoma
# DMS 273 small cell lung = system: DMS 273 small cell lung
# SNB-19 CNS = system: SNB-19 CNS
# ACHN renal = system: ACHN renal
# A549 NSCLC = system: A549 NSCLC
# HOP-92 NSCLC = system: HOP-92 NSCLC
# EKVX NSCLC = system: EKVX NSCLC
# SK-OV-3 ovarian = system: SK-OV-3 ovarian
# OVCAR-5 ovarian = system: OVCAR-5 ovarian
# UO-31 renal = system: UO-31 renal
# SF-268 CNS = system: SF-268 CNS
# RXF 393 renal = system: RXF 393 renal
# NCI-H522 lung = system: NCI-H522 lung
# NCI-H460 lung = system: NCI-H460 lung
# UACC-62 melanoma = system: UACC-62 melanoma
# SR leukemia = system: SR leukemia
# HOP-62 NSCLC = system: HOP-62 NSCLC
# SK-MEL-28 melanoma = system: SK-MEL-28 melanoma
# SF-295 CNS = system: SF-295 CNS
# IGROV1 ovarian = system: IGROV1 ovarian
# MOLT-4 leukemia = system: MOLT-4 leukemia
# SNB-78 CNS = system: SNB-78 CNS
# TK-10 renal = system: TK-10 renal
# U251 CNS = system: U251 CNS
# CCRF-CEM leukemia = system: CCRF-CEM leukemia
# M19-MEL melanoma = system: M19-MEL melanoma
# HL-60(TB) leukemia = system: HL-60(TB) leukemia
# OVCAR-8 ovarian = system: OVCAR-8 ovarian
# OVCAR-4 ovarian = system: OVCAR-4 ovarian
# SK-MEL-5 melanoma = system: SK-MEL-5 melanoma
# 786-0 renal = system: 786-0 renal
# DU-145 prostate = system: DU-145 prostate
# MCF7 breast = system: MCF7 breast
# NCI-H226 lung = system: NCI-H226 lung
# LOX IMVI melanoma = system: LOX IMVI melanoma
# MDA-MB-435 = system: MDA-MB-435
# RPMI-8226 leukemia = system: RPMI-8226 leukemia
# HS 578T breast = system: HS 578T breast
# PC-3 prostate = system: PC-3 prostate
# SF-539 CNS = system: SF-539 CNS
# BT-549 breast = system: BT-549 breast
# K-562 leukemia = system: K-562 leukemia
# SN12C renal = system: SN12C renal
# MDA-MB-231 breast = system: MDA-MB-231 breast
# SNB-75 CNS = system: SNB-75 CNS
# CAKI-1 renal = system: CAKI-1 renal
# T-47D breast = system: T-47D breast
# SW-620 colon = system: SW-620 colon
# HCC-2998 colon = system: HCC-2998 colon
# HCT-116 colon = system: HCT-116 colon
# NCI/ADR-RES ovarian = system: NCI/ADR-RES ovarian
# MALME-3M melanoma = system: MALME-3M melanoma
# HCT-15 colon = system: HCT-15 colon
# SK-MEL-2 melanoma = system: SK-MEL-2 melanoma
# MDA-N = system: MDA-N
# COLO 205 colon = system: COLO 205 colon
# OVCAR-3 ovarian = system: OVCAR-3 ovarian
# LXFL 529 NSCLC = system: LXFL 529 NSCLC
# DMS 114 small cell lung = system: DMS 114 small cell lung
smiles,measurement,setting,value
CC1(C(=O)Nc2ccc3ccccc3c2)CC2(C)CC(C)(C1)C(O)NC2=O (stereo not drawn),TGI,NCI-H23 lung,> 100 µM
same,TGI,HT29 colon,> 100 µM
same,TGI,KM12 colon,> 100 µM
same,TGI,A498 renal,> 100 µM
same,TGI,M14 melanoma,> 100 µM
same,TGI,UACC-257 melanoma,> 100 µM
same,TGI,DMS 273 small cell lung,> 100 µM
same,TGI,SNB-19 CNS,> 100 µM
same,TGI,ACHN renal,> 100 µM
same,TGI,A549 NSCLC,> 100 µM
same,TGI,HOP-92 NSCLC,> 100 µM
same,TGI,EKVX NSCLC,> 100 µM
same,TGI,SK-OV-3 ovarian,> 100 µM
same,TGI,OVCAR-5 ovarian,> 100 µM
same,TGI,UO-31 renal,> 100 µM
same,TGI,SF-268 CNS,> 100 µM
same,TGI,RXF 393 renal,> 100 µM
same,TGI,NCI-H522 lung,> 100 µM
same,TGI,NCI-H460 lung,> 100 µM
same,TGI,UACC-62 melanoma,> 100 µM
same,TGI,SR leukemia,> 100 µM
same,TGI,HOP-62 NSCLC,> 100 µM
same,TGI,SK-MEL-28 melanoma,> 100 µM
same,TGI,SF-295 CNS,> 100 µM
same,TGI,IGROV1 ovarian,> 100 µM
same,TGI,MOLT-4 leukemia,> 100 µM
same,TGI,SNB-78 CNS,> 100 µM
same,TGI,TK-10 renal,> 100 µM
same,TGI,U251 CNS,> 100 µM
same,TGI,CCRF-CEM leukemia,> 100 µM
same,TGI,M19-MEL melanoma,> 100 µM
same,TGI,HL-60(TB) leukemia,> 100 µM
same,TGI,OVCAR-8 ovarian,> 100 µM
CCCCCCCCCCCCCCCCOP(=O)(O)OCC(NC(C)=O)C(=O)O (stereo not drawn),TGI,NCI-H23 lung,> 100 µM
same,TGI,HT29 colon,> 100 µM
same,TGI,OVCAR-4 ovarian,60.7 µM
same,TGI,SK-MEL-5 melanoma,> 100 µM
same,TGI,A498 renal,> 100 µM
same,TGI,M14 melanoma,> 100 µM
same,TGI,786-0 renal,> 100 µM
same,TGI,DU-145 prostate,> 100 µM
same,TGI,MCF7 breast,> 100 µM
same,TGI,UACC-257 melanoma,> 100 µM
same,TGI,SNB-19 CNS,35.6 µM
same,TGI,NCI-H226 lung,> 100000 nM
same,TGI,ACHN renal,> 100 µM
same,TGI,A549 NSCLC,> 100 µM
same,TGI,LOX IMVI melanoma,> 100 µM
same,TGI,HOP-92 NSCLC,> 100 µM
same,TGI,EKVX NSCLC,> 100 µM
same,TGI,MDA-MB-435,> 100 µM
same,TGI,SK-OV-3 ovarian,> 100 µM
same,TGI,OVCAR-5 ovarian,> 100 µM
same,TGI,RPMI-8226 leukemia,> 100 µM
same,TGI,HS 578T breast,> 100 µM
same,TGI,PC-3 prostate,34.7 µM
same,TGI,SF-539 CNS,> 100 µM
same,TGI,BT-549 breast,34 µM
same,TGI,UO-31 renal,> 100 µM
same,TGI,SF-268 CNS,95.9 µM
same,TGI,K-562 leukemia,> 100 µM
same,TGI,SN12C renal,> 100 µM
same,TGI,RXF 393 renal,48.3 µM
same,TGI,NCI-H522 lung,> 100 µM
same,TGI,NCI-H460 lung,> 100 µM
same,TGI,SR leukemia,> 100 µM
same,TGI,HOP-62 NSCLC,36.9 µM
same,TGI,MDA-MB-231 breast,93.2 µM
same,TGI,SNB-75 CNS,98.2 µM
same,TGI,SK-MEL-28 melanoma,> 100 µM
same,TGI,SF-295 CNS,47.4 µM
same,TGI,IGROV1 ovarian,62.2 µM
same,TGI,CAKI-1 renal,> 100 µM
same,TGI,T-47D breast,> 100 µM
same,TGI,SW-620 colon,> 100 µM
same,TGI,HCC-2998 colon,> 100 µM
same,TGI,HCT-116 colon,> 100 µM
same,TGI,MOLT-4 leukemia,51.8 µM
same,TGI,NCI/ADR-RES ovarian,> 100 µM
same,TGI,MALME-3M melanoma,> 100 µM
same,TGI,TK-10 renal,62.6 µM
same,TGI,HCT-15 colon,34.3 µM
same,TGI,SK-MEL-2 melanoma,> 100 µM
same,TGI,U251 CNS,40.8 µM
same,TGI,MDA-N,> 100 µM
same,TGI,COLO 205 colon,> 100 µM
same,TGI,OVCAR-3 ovarian,> 100 µM
same,TGI,HL-60(TB) leukemia,> 100 µM
same,TGI,OVCAR-8 ovarian,> 100 µM
C/C(=N\NC(=S)SCc1ccccc1)c1ccccn1,TGI,NCI-H23 lung,9.31 µM
same,TGI,HT29 colon,15.6 µM
same,TGI,OVCAR-4 ovarian,1.52 µM
same,TGI,SK-MEL-5 melanoma,5.56 µM
same,TGI,KM12 colon,16.1 µM
same,TGI,A498 renal,8.73 µM
same,TGI,M14 melanoma,6.44 µM
same,TGI,786-0 renal,10.2 µM
same,TGI,DU-145 prostate,16.9 µM
same,TGI,MCF7 breast,< 0.01 µM
same,TGI,UACC-257 melanoma,1.42 µM
same,TGI,SNB-19 CNS,18.3 µM
same,TGI,NCI-H226 lung,1620 nM
same,TGI,ACHN renal,1.95 µM
same,TGI,A549 NSCLC,20.5 µM
same,TGI,LOX IMVI melanoma,9.56 µM
same,TGI,HOP-92 NSCLC,2.14 µM
same,TGI,EKVX NSCLC,< 0.01 µM
same,TGI,MDA-MB-435,18.3 µM
same,TGI,OVCAR-5 ovarian,9.71 µM
same,TGI,RPMI-8226 leukemia,1.97 µM
same,TGI,HS 578T breast,26.3 µM
same,TGI,PC-3 prostate,15.2 µM
same,TGI,SF-539 CNS,2.49 µM
same,TGI,BT-549 breast,6.07 µM
same,TGI,UO-31 renal,14.2 µM
same,TGI,SF-268 CNS,11.4 µM
same,TGI,K-562 leukemia,2.95 µM
same,TGI,SN12C renal,3.13 µM
same,TGI,RXF 393 renal,3.03 µM
same,TGI,NCI-H522 lung,2.79 µM
same,TGI,NCI-H460 lung,10.6 µM
same,TGI,UACC-62 melanoma,4.69 µM
same,TGI,SR leukemia,1.77 µM
same,TGI,MDA-MB-231 breast,4.08 µM
same,TGI,SNB-75 CNS,13.7 µM
same,TGI,SF-295 CNS,9.26 µM
same,TGI,IGROV1 ovarian,30.2 µM
same,TGI,CAKI-1 renal,4.93 µM
same,TGI,T-47D breast,> 42.6 µM
same,TGI,SW-620 colon,9.86 µM
same,TGI,HCC-2998 colon,23.8 µM
same,TGI,HCT-116 colon,5.96 µM
same,TGI,NCI/ADR-RES ovarian,< 0.0332 µM
same,TGI,MALME-3M melanoma,7.4 µM
same,TGI,TK-10 renal,13.5 µM
same,TGI,HCT-15 colon,12.1 µM
same,TGI,SK-MEL-2 melanoma,11.6 µM
same,TGI,U251 CNS,13.3 µM
same,TGI,CCRF-CEM leukemia,< 0.01 µM
same,TGI,MDA-N,15.3 µM
same,TGI,COLO 205 colon,0.464 µM
same,TGI,HL-60(TB) leukemia,1.04 µM
same,TGI,OVCAR-8 ovarian,0.326 µM
CCCCCCCCCC(=O)OCC1OC(n2cc(F)c(=O)[nH]c2=O)C(NC(=O)OCc2ccccc2)C(OC(=O)CCCCCCCCC)C1O (stereo not drawn),TGI,NCI-H23 lung,62 µM
same,TGI,HT29 colon,35 µM
same,TGI,OVCAR-4 ovarian,40.6 µM
same,TGI,LXFL 529 NSCLC,> 100 µM
same,TGI,SK-MEL-5 melanoma,41.5 µM
same,TGI,KM12 colon,> 100 µM
same,TGI,A498 renal,> 100 µM
same,TGI,M14 melanoma,> 100 µM
same,TGI,786-0 renal,36.1 µM
same,TGI,UACC-257 melanoma,> 100 µM
same,TGI,DMS 273 small cell lung,> 100 µM
same,TGI,SNB-19 CNS,> 100 µM
same,TGI,ACHN renal,> 100 µM
same,TGI,A549 NSCLC,> 100 µM
same,TGI,LOX IMVI melanoma,30.2 µM
same,TGI,HOP-92 NSCLC,36.3 µM
same,TGI,EKVX NSCLC,> 100 µM
same,TGI,SK-OV-3 ovarian,> 100 µM
same,TGI,RPMI-8226 leukemia,65.2 µM
same,TGI,DMS 114 small cell lung,49.1 µM
same,TGI,SF-539 CNS,> 100 µM
same,TGI,UO-31 renal,> 100 µM
same,TGI,SF-268 CNS,> 100 µM
same,TGI,K-562 leukemia,> 100 µM
same,TGI,SN12C renal,29.6 µM
same,TGI,RXF 393 renal,44 µM
same,TGI,NCI-H522 lung,72.2 µM
same,TGI,UACC-62 melanoma,> 100 µM
same,TGI,SR leukemia,81.2 µM
same,TGI,HOP-62 NSCLC,> 100 µM
same,TGI,SNB-75 CNS,> 100 µM
same,TGI,SK-MEL-28 melanoma,> 100 µM
same,TGI,SF-295 CNS,> 100 µM
same,TGI,IGROV1 ovarian,> 100 µM
same,TGI,CAKI-1 renal,> 100 µM
same,TGI,SW-620 colon,> 100 µM
same,TGI,HCC-2998 colon,> 100 µM
same,TGI,HCT-116 colon,28.1 µM
same,TGI,MOLT-4 leukemia,> 100 µM
same,TGI,MALME-3M melanoma,90.6 µM
same,TGI,TK-10 renal,> 100 µM
same,TGI,HCT-15 colon,> 100 µM
same,TGI,SK-MEL-2 melanoma,> 100 µM
same,TGI,U251 CNS,30.3 µM
same,TGI,CCRF-CEM leukemia,> 100 µM
same,TGI,COLO 205 colon,> 100 µM
same,TGI,OVCAR-3 ovarian,48.5 µM
same,TGI,M19-MEL melanoma,> 100 µM
same,TGI,HL-60(TB) leukemia,55.8 µM
same,TGI,OVCAR-8 ovarian,80.1 µM
